Measured values taken from patent US9132118B2, “Taxane analogs for the treatment of brain cancer” (Tapestry Pharmaceuticals, Inc., priority 2007, dated 2015).
“Also recorded” adds a separate entry of the source.

Key:
[1] = Phase 1 Study S-(1)-01, i.v. weekly x3 in a 28-day cycle, safety and pharmacokinetics; type: in vivo, patients; conditions: for AUC0-24 / Cl / Vss / t1/2: Study S-(1)-01 (50:50 Cremophor EL-P/ethanol), i.v., first dose
Method: Both trials have enrolled patients with advanced solid tumors, non-Hodgkin's lymphoma or Hodgkin's lymphoma that have recurred or progressed following at least standard therapy; patients with malignancies for which there is no standard therapy; patients who are not candidates for standard therapy; or patients who have chosen not to pursue standard therapy.
Plasma pharmacokinetics of S-(1) were assessed following the first dose of S-(1) in both studies. Plasma samples were analyzed for S-(1) using a validated LC/MS-MS method.
Treatment cohorts consisted of 3 pts and were expanded to 6 pts in the face of dose-limiting toxicity (DLT); pts could remain on study until the development of progressive disease or an intolerable adverse event. DLT was defined as Gr 4 heme toxicity lasting 7 days; febrile neutropenia, Gr 3 thrombocytopenia with bleeding, Gr 3 elevation of transaminases lasting 7 days or any other Gr 3/4 toxicity other than nausea or vomiting. Results: 25 pts (M:F 16:9, median age 60, range 24-86) were enrolled in 7 dose levels ranging from 7-185 mg/m^2. Pts' cancers included colorectal (6 pts); NSCLC (2); prostate (2); squamous cell carcinoma (2) and 1 pt each with cervical, breast, ovarian, gastric, pancreatic, bladder endometrial, NSCLC, SCLC, glioblastoma, melanoma, renal cell and hepatocellular carcinoma.

[2] = S-(1) rat oral bioavailability, formulations evaluated in vivo
Method: IV formulation (Cremophor El P/alcohol) and a suspension of the compound of Formula S-(1) in aqueous medium: Several studies were performed to investigate specific parameters.
Using the 50:50 CremophoπEthanol formulation as a case study (AUC last: 2540; norm AUCinf: 477), F was calculated from the ratio of the normalized PO and IV AUCs: F(%)=norm. AUC PO/norm. AUC IV.

[3] = test system: bovine microtubule protein (tubulin plus microtubule associated proteins); assay: In vitro ED50 MT polymerization study (DAPI fluorescence tubulin assay); type: biochemical
Method: In this tubulin binding assay, microtubule protein (MTP) is used as a substrate. The assay contains bovine tubulin plus microtubule associated proteins (MAP). MTP is polymerized into microtubules in the presence of DAPI (4′,6′-diamidino-2-phenylindole), a fluorescent compound. DAPI binds to tubulin; when microtubules are formed and there is an enhancement of fluorescence. The microtubule formation is measured as a function of time, using a fluorescence plate reader. […] The method used is based on the procedure published by Donna M. Barron, et al, “Fluorescence-based high-throughput assay for antimicrotuble drugs” Analytical Biochemistry, 315: 49-56, 2003, which is incorporated by reference in its entirety. The excitation wavelength, in that assay, was set at 370 nm and the emission wavelength was set at 450 nm for the DAPI experiments.
A Bio-Tek FL 600 microplate Fluorescence Reader was used to measure the relative level of fluorescence in the DAPI assay.
Assays were conducted in 96-well plates. […] The final DMSO concentration was 4%. The plates were incubated at 37° C. for 30 minutes and read in a fluorescence plate reader using an excitation wavelength of 360 nm and an emission wavelength of 460 nm. Fluorescence values were corrected for the sample without compound. […] Experiments were done twice in triplicate. Results were subsequently combined and fit to a non-linear regression program.

[4] = weekly study summary, dose of 127.5 mg/m^2

With `C=C[C@H]1O[C@H]2CC3OC[C@@]3(OC(C)=O)[C@H]3[C@H](OC(=O)c4ccccc4)[C@]4(C(C)(C)O)C[C@H](OC(=O)[C@H](O)[C@H](CC(C)C)NC(=O)OC(C)(C)C)C(C)=C4[C@H](OC(C)=O)[C@H](O1)[C@]23C` (stereo partly drawn) [S-(1)] the AUC0-24 ([1]; 14 mg/m^2, plasma) was 457 ± 297 ng·h/mL, the Cl ([1]; 14 mg/m^2, plasma) was 35.5 ± 29.7 L/hr/m^2 and the Vss ([1]; 14 mg/m^2, plasma) was 23.2 ± 74.5 L/m^2. The t1/2 ([1]; 14 mg/m^2, plasma) was 8.4 ± 11.5 h, the AUC0-24 ([1]; 28 mg/m^2, plasma) was 682 ± 322 ng·h/mL and the Cl ([1]; 28 mg/m^2, plasma) was 43.5 ± 14.5 L/hr/m^2. It also gave a Vss ([1]; 28 mg/m^2, plasma) of 309 ± 161 L/m^2, a t1/2 ([1]; 28 mg/m^2, plasma) of 3.45 ± 1.09 h and an AUC0-24 ([1]; 56 mg/m^2, plasma) of 2070 ± 888 ng·h/mL. It also gave a Cl ([1]; 56 mg/m^2, plasma) of 28.6 ± 13.2 L/hr/m^2, a Vss ([1]; 56 mg/m^2, plasma) of 216 ± 70 L/m^2 and a t1/2 ([1]; 56 mg/m^2, plasma) of 5.66 ± 3.63 h. For the same compound, the AUC0-24 ([1]; 85 mg/m^2, plasma) was 5970 ± 3900 ng·h/mL, the Cl ([1]; 85 mg/m^2, plasma) was 16.6 ± 9.26 L/hr/m^2 and the Vss ([1]; 85 mg/m^2, plasma) was 142 ± 75.6 L/m^2. For the same compound, the t1/2 ([1]; 85 mg/m^2, plasma) was 5.52 ± 5.26 h, the AUC0-24 ([1]; 127.5 mg/m^2, plasma) was 4460 ± 2140 ng·h/mL and the Cl ([1]; 127.5 mg/m^2, plasma) was 30.2 ± 11.9 L/hr/m^2. For the same compound, the Vss ([1]; 127.5 mg/m^2, plasma) was 239 ± 116 L/m^2, the t1/2 ([1]; 127.5 mg/m^2, plasma) was 6.59 ± 2.60 h and the dose limiting toxicity ([1]; Study S-(1)-01, i.v. weekly ×3, observed in one patient at 185 mg/m^2) was “Grade 3 sensory neuropathy; also recorded: Grade 3 peripheral neuropathy”. For the same compound, the half-life ([1]; both sexes, human, plasma, intravenous, Study S-(1)-01, after first dose, read-out: Plasma t1/2, range over dose groups) was 3.45 to 8.4 h, the “dose dependence of AUC (in words)” value ([1]; weekly study) was “generally dose linear” and the clearance [1, 4] was 30.2+11.9 L/hr/m^2. The tm [1, 4] was 8.6+1.3 hrs, the anti-neoplastic activity ([1]; weekly study, patients with advanced neoplasms) was “Anti-neoplastic activity was seen in a patient with pancreatic cancer” and the “drug related adverse events” value ([1]; weekly ×3 then 1 week rest, 7-185 mg/m^2, 25 pts) was “nausea, vomiting, diarrhea, fatigue, anorexia, rash, anemia and peripheral neuropathy”. For the same compound, the “dose that can be safely administered” value ([1]; weekly×3 in heavily pre-treated patients) was “up to 185 mg/m^2”, the “difference in F with different formulations (in words)” value [2] was “no significant difference in F with different formulations” and the bioavailability ([2]; in vivo, using a cremophor-free formulation as reference, read-out: effective F (real bioavailability)) was 60 to 70%. The “ED50 Compound/ED50 Paclitaxel” value ([3]; ratio of tubulin polymerization ED50 values) was 0.53 and the EC50 ([3]; tubulin polymerization, 37° C. 30 minutes, percent of maximum assembly at 25 μM paclitaxel) was 1580 ± 460 nM.
